One data set deals with Aspergillus fumigatus. Put plainly: Contact fungicidal screen, Aspergillus fumigatus. It counts as cell-based. Conditions: 0.1M NaOAc pH 4.6. How it is done: (§1) The organisms used in the Contact Fungicidal Screen are a dermatophyte, trychophyton mentagrophytes, frequently associated with athlete's foot; a yeast, Candida albican, causative agent of thrush and vaginitis; a phycomycete, Rhizopus oryzae, commonly known as black bread mold; an ascomycete, Aspergillus fumagatis, found in chicken droppings and causing lung infections; and another dermatophyte, Microsporum canis, which causes ringworm. These organisms are maintained as stock cultures at 4° C. on agar […] of the following composition: dextrose 2%, Neopeptone (Difco) 1%, agar 2%. Fluid medium of the same nutrient composition (without agar) was used to test the viability of the organisms after exposure to the fungicide. This medium is also known as Sabouraud's medium. Sabouraud's agar plate cultures of Aspergillus fumigatus, Microsporum canis, and a different culture of Trychophyton mentagrophytes are prepared by planting an inoculum at the center of an agar plate and incubating at 25°-30° C. for seven to ten days. The mycelial mats are removed from the surface of the agar and prepared in the same manner as the Rhizopus culture. The compounds are weighed into heat sterilized 100 ml volumetric flasks and immediately before screening dissolved in 0.1 M NaOAc pH 4.6 buffer (test solutions). The Aspergillus, Candida, Microsporum and Rhizopus species are screened in a slightly different manner. Basically, the procedure for the Contact Germicidal Efficiency Screen is utilized. After the test solutions are made up, 5 ml aliquots are pipetted into heat sterilized 25 ml glass stoppered erlenmeyer flasks. The screen is initiated when 0.5 ml of the 5×10^6 cell (spore) per ml suspension is added to the flask containing 5 ml of the test solution. […] The subculture tubes are incubated at 25°-30° C. for ten days with daily observation for mycelial growth. The earliest subculture time at which no growth is present is considered the endpoint and is recorded as the sterilization time. To insure the viability of the culture, a 0.5 ml aliquot of the 5×10^6 cells (spores) per ml suspension is transferred to 5 ml of the pH 4.6 buffer. A loopful of the inoculated buffer is then subcultured to 7 ml of fluid Sabouraud's medium and incubated at 25°-30° C. for ten days. To insure that the dilution of the test solution into the subculture medium does stop the action, a loopful of the test solution and a loopful of the inoculated buffer are transferred into the same subculture tube. This tube is also incubated at 25°-30° C. for ten days.

Another data set deals with Candida albican. Nature of the data set: Contact fungicidal screen, Candida albican. The settings on record: 0.1M NaOAc pH 4.6. It counts as cell-based. On the procedure:
(§2) The organisms used in the Contact Fungicidal Screen are a dermatophyte, trychophyton mentagrophytes, frequently associated with athlete's foot; a yeast, Candida albican, causative agent of thrush and vaginitis; a phycomycete, Rhizopus oryzae, commonly known as black bread mold; an ascomycete, Aspergillus fumagatis, found in chicken droppings and causing lung infections; and another dermatophyte, Microsporum canis, which causes ringworm. These organisms are maintained as stock cultures at 4° C. on agar slants of the following composition: dextrose 2%, Neopeptone (Difco) 1%, agar 2%. Fluid medium of the same nutrient composition (without agar) was used to test the viability of the organisms after exposure to the fungicide. This medium is also known as Sabouraud's medium.
The Candida albican is grown in Sabouraud's liquid medium at 25°-30° C. for three days. At the end of the incubation period the cell suspension is centrifuged at 200 G and washed with sterile physiological saline (0.85% NaCl). The density of the cell suspension is determined by counting in a hemacytometer. The suspension is stored a 4° C. until it is used, at which time it is diluted with sterile physiological saline to a density of 5×10^6 cells per ml.
(§3) The compounds are weighed into heat sterilized 100 ml volumetric flasks and immediately before screening dissolved in 0.1 M NaOAc pH 4.6 buffer (test solutions).
(§4) The Aspergillus, Candida, Microsporum and Rhizopus species are screened in a slightly different manner. Basically, the procedure for the Contact Germicidal Efficiency Screen is utilized. After the test solutions are made up, 5 ml aliquots are pipetted into heat sterilized 25 ml glass stoppered erlenmeyer flasks. The screen is initiated when 0.5 ml of the 5×10^6 cell (spore) per ml suspension is added to the flask containing 5 ml of the test solution. At intervals of 0.5, 2.5, 5.0, 10.0 and 15.0 minutes, a 4 mm loopful of the inoculated test solution is subcultured into 7 mL of sterile fluid Sabouraud's medium and mixed on a vortex, the high dilution serving to stop the action of the compound. The subculture tubes are incubated at 25°-30° C. for ten days with daily observation for mycelial growth. The earliest subculture time at which no growth is present is considered the endpoint and is recorded as the sterilization time.
(§5) To insure the viability of the culture, a 0.5 ml aliquot of the 5×10^6 cells (spores) per ml suspension is transferred to 5 ml of the pH 4.6 buffer. A loopful of the inoculated buffer is then subcultured to 7 ml of fluid Sabouraud's medium and incubated at 25°-30° C. for ten days. To insure that the dilution of the test solution into the subculture medium does stop the action, a loopful of the test solution and a loopful of the inoculated buffer are transferred into the same subculture tube. This tube is also incubated at 25°-30° C. for ten days.

The test system of another data set is Microsporum canis. Nature of the data set: Contact fungicidal screen, Microsporum canis. It counts as cell-based. The settings on record: 0.1M NaOAc pH 4.6. On the procedure: as §1
In a further data set the test system is Rhizopus oryzae. Put plainly: Contact fungicidal screen, Rhizopus oryzae. It counts as cell-based. Conditions: 0.1M NaOAc pH 4.6. On the procedure: as §2
[…]. The mycelial mat is removed from the surface of the agar using a sterile spatula. It is transferred to a heat sterilized glass tissue grinder and macerated with 25 ml of sterile physiological saline. The suspension is then filtered through sterile glass wool. The density of the sporangia spore suspension is determined by counting in a hemacytometer. The suspension is stored at 4° C. until it was used, at which time it was diluted with sterile physiological saline to a density of 5×10^6 spores per ml.
as §3, §4, §5

Data set [1] concerns Gram-positive and Gram-negative organisms. Conditions: cited from earlier work.
A further data set relates to pseudomonas organisms. The settings on record: cited from earlier work.
For data set [2] the following is noted: animal tests; cited from earlier work.
A further data set has as its system Gram-negative organisms. The settings on record: cited from earlier work.
The nature of data set [3]: Stability of chloroamino acids in pH 4 acetate buffer at 34° C. The settings on record: for half-life: read-out: Stability (t1/2) (converted). It counts as physicochemical. The source says: The effect of this distance on stability in aqueous medium is illustrated in the following table.

For `CC(C)(CCCCC(=O)O)N(Cl)Cl` [(VI), 6-Dichloroamino-6-methyl-heptanoic acid], the “Sterilization Time” value in the data set on Aspergillus fumigatus (10 PPM) amounted to 15 min; in the data set on Aspergillus fumigatus (100 PPM), 15 min; with Aspergillus fumigatus (1000 PPM), 5.0 min; with Candida albican (10 PPM), 15 min; with Candida albican (100 PPM) it was 2.5 min; with Candida albican (1000 PPM), 0.5 min. Besides, the “Sterilization Time” value in the data set with Microsporum canis (10 PPM) was 10.0 min; in the data set with Microsporum canis (100 PPM), 2.5 min; in the data set on Microsporum canis (1000 PPM) it was 0.5 min; with Rhizopus oryzae (10 PPM), 15 min; in the data set on Rhizopus oryzae (100 PPM) it was 15 min; with Rhizopus oryzae (1000 PPM), 15 min.
For `[H]/N=C(\N/C(=N/[H])NCCCCCCNC(=N)NC(=N)Nc1ccc(Cl)cc1)Nc1ccc(Cl)cc1` [Chlorhexidine], the “activity against Gram-positive and Gram-negative organisms” value in data set [1] was “generally effective against Gram-positive and Gram-negative oganisms”. Further, in the data set with pseudomonas organisms, the “activity against pseudomonas organisms” value is recorded as “not effective against pseudomonas organisms”.
Turning to `Oc1c(Cl)cc(Cl)c(Cl)c1Cc1c(O)c(Cl)cc(Cl)c1Cl` [Hexachlorophene], the neurotoxicity entry in data set [2] is reported as “caused neurotoxicity”. In addition, in the data set on Gram-negative organisms, the “activity against Gram-negative organisms” value was “ineffective against Gram-negative organisms”.
With `CC(C)(CCC(=O)O)N(Cl)Cl` [Z = CH2 CH2], the half-life in data set [3] is 57 days.
On the same count and under the same terms, then `CC(C)(CC(=O)O)N(Cl)Cl` [Z = CH2], with 1.21 days.
Regarding `CC(C)(C(=O)O)N(Cl)Cl` [Z = nothing], the “Stability (in words)” value in data set [3] was “violent decomposition”.
Turning to `CC(C)(COC(=O)CCC(=O)O)N(Cl)Cl` [drawing 17], in [3], the half-life was 300 days.

These data come from US4386103A, “Dichloroamino acid derivatives useful as potent germicidal and fungicidal agents” (Merck & Co., Inc., priority 1981, dated 1983).
